Measurements taken from patent publication US8772504B2, “Substituted benzoxazole, benzimidazole, oxazolopyridine and imidazopyridine derivatives as gamma secretase modulators” (Janssen Pharmaceuticals, Inc., priority 2009, dated 2014).

Tests used:
Aβ42 = experiment: Screening for γ-secretase-modulating activity, Method 2: Aβ42 Alphalisa on SKNBE2 cell supernatant; type: cell-based; details: Method 2, Table 3c, SKNBE2 cells carrying APP 695 wild type, overnight incubation
How it was run: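 SKNBE2 cells expressing wild-type APP695, plated at 10^4 cells/well with compound at several concentrations and incubated overnight at 37° C. Aβ42 (C-terminal capture, N-terminal biotinylated detection) and Aβtotal (N-terminal/4G8 pair) measured in supernatant by AlphaLISA. IC50 from 4-parameter fit of percent of compound-free control.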

Aβtotal = experiment: In vivo efficacy Method 1: brain soluble Aβtotal by ELISA; design: species or system mouse; details: Table 4a, single oral dose, overnight fasted animals, sacrificed after 4 h, soluble fraction of brain homogenates
How it was run: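 Overnight-fasted rodents or APP transgenic mice given a single oral dose in 20% Captisol or 20% hydroxypropyl β-cyclodextrin and sacrificed after 4 h. Right-hemisphere homogenate high-speed supernatant used: neutralized portion for Aβtotal, Oasis HLB-purified and concentrated eluate for Aβ42, both quantified by ELISA.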

Row | melting point | IC50 (Aβ42; Homo sapiens) | IC50 (Aβ42) | SMILES | Aβtotal (% Ctrl) _Mean (Aβtotal)
1 |  | 0.02 µM |  | COc1cc(Nc2cc(C(C)C)nc3c2nc(-c2ccc(F)cc2)n3C)ccc1-n1cnc(C)n1 [Compound 110] | 
2 | 186.8 °C | 0.021 µM |  | COc1cc(-c2nc3c(Nc4ccc(-n5cnc(C)n5)c(OC)c4)nccc3n2C)ccc1Cl [Compound 114] | 
3 |  |  | 0.002 µM | COc1nc(Nc2cc(F)cc3c2nc(-c2ccc(F)cc2)n3C)ccc1-n1cnc(C)c1 [Compound 115] | 93 % Ctrl
4 |  |  | 0.129 µM | COc1cc(Nc2nccc3c2nc(-c2ccccc2C(F)(F)F)n3C)ccc1-n1cnc(C)n1 [Compound 130] | 94 % Ctrl
5 |  |  | 0.046 µM | COc1cc(Nc2nc(C)cc3c2nc(-c2ccc(F)cc2)n3C)ccc1-n1cnc(C)n1 [Compound 164] | 97 % Ctrl

More lines, now with the values behind:

Row | SMILES | melting point | IC50 (Aβ42; Homo sapiens) | IC50 (Aβ42) | Aβtotal (% Ctrl) _Mean (Aβtotal)
6 | COc1cc(Nc2cccc3c2nc(-c2ccc(F)cc2)n3C)ccc1-n1cnc(C)c1 [Compound 1] | 130.9 °C | 0.016 µM |  | 100 % Ctrl
7 | COc1cc(Nc2cccc3c2nc(-c2ccc(F)cc2)n3C)ccc1-n1cnc(C)n1 [Compound 4] | 185.2 °C | 0.027 µM |  | 92 % Ctrl
8 | COc1cc(Nc2nccc3c2nc(-c2ccc(F)cc2)n3C)ccc1-n1cnc(C)c1 [Compound 8] |  | 0.017 µM |  | 91 % Ctrl
9 | COc1nc(Nc2cccc3c2nc(-c2ccc(F)cc2)n3C)ccc1-n1cnc(C)c1 [Compound 15] |  | 0.006 µM |  | 83 % Ctrl
10 | CCn1c(CC2CC2)nc2c(Nc3ccc(-n4cnc(C)c4)c(OC)c3)cccc21 [Compound 36] |  |  | 0.078 µM | 95 % Ctrl
11 | COc1cc(Nc2cccc3c2nc(Oc2ccccc2)n3C)ccc1-n1cnc(C)c1 [Compound 61] |  |  | 0.141 µM | 97 % Ctrl
12 | Cc1cn(-c2ccc(Nc3cccc4c3nc(-c3ccc(F)cc3)n4C)cc2F)cn1 [Compound 67] |  |  | 0.036 µM | 99 % Ctrl
13 | Cc1ncn(-c2ccc(Nc3cccc4c3nc(-c3ccc(F)cc3)n4C(C)C)cc2)n1.Cl.Cl [Compound 73] |  |  | 0.288 µM | 97 % Ctrl
14 | COc1cc(Nc2cccc3c2nc(-c2ccc(F)cc2)n3C(C)C)ccc1-n1cnc(C)n1.Cl.Cl [Compound 75] |  |  | 0.045 µM | 92 % Ctrl
15 | Cc1ncn(-c2ccc(Nc3cccc4c3nc(-c3ccc(F)cc3)n4C(C)C)cn2)n1 [Compound 76] |  |  | 0.072 µM | 102 % Ctrl
16 | COc1cc(Nc2nccc3c2nc(-c2ccc(F)cc2)n3C)ccc1-n1cnc(C)n1 [Compound 92] |  |  | 0.178 µM | 103 % Ctrl
